Assay results taken from patent US12281095B2, “Pesticidally active diazine-amide compounds” (SYNGENTA CROP PROTECTION AG, priority 2019, dated 2025).

Columns and labels:
Assay type in all cases: in vivo
[1] = tested on: Diabrotica balteata (Corn Root Worm); experiment: Example B1: Diabrotica balteata (Corn Root Worm), sprayed maize sprouts; details: 96 h, application rate of 200 ppm, L2 larvae, 4 days after infestation, read-out: control in at least one of the two categories (mortality or growth inhibition)
Experimental: Example B1: Diabrotica balteata (Corn Root Worm)
Maize sprouts placed onto an agar layer in 24-well microtiter plates were treated with aqueous test solutions prepared from 10′000 ppm DMSO stock solutions by spraying. After drying, the plates were infested with L2 larvae (6 to 10 per well). The samples were assessed for mortality and growth inhibition in comparison to untreated samples 4 days after infestation.

[2] = tested on: Euschistus heros (Neotropical Brown Stink Bug); experiment: Example B2: Euschistus heros (Neotropical Brown Stink Bug), sprayed soybean leaves; details: 120 h, application rate of 200 ppm, N2 nymphs, 5 days after infestation, read-out: control in at least one of the two categories (mortality or growth inhibition)
Experimental: Example B2: Euschistus heros (Neotropical Brown Stink Bug)
Soybean leaves on agar in 24-well microtiter plates were sprayed with aqueous test solutions prepared from 10′000 ppm DMSO stock solutions. After drying the leaves were infested with N2 nymphs. The samples were assessed for mortality and growth inhibition in comparison to untreated samples 5 days after infestation.

[3] = tested on: Chilo suppressalis (Striped Rice Stemborer); experiment: Example B4: Chilo suppressalis (Striped Rice Stemborer), artificial diet; details: 144 h, application rate of 200 ppm, L2 larvae, 6 days after infestation, read-out: control in at least one of the three categories (mortality, anti-feedant or growth inhibition)
Experimental: Example B4: Chilo suppressalis (Striped Rice Stemborer)
24-well microtiter plates with artificial diet were treated with aqueous test solutions prepared from 10′000 ppm DMSO stock solutions by pipetting. After drying, the plates were infested with L2 larvae (6-8 per well). The samples were assessed for mortality, anti-feeding effect, and growth inhibition in comparison to untreated samples 6 days after infestation. Control of Chilo suppressalis by a test sample is given when at least one of the categories mortality, anti-feedant effect, and growth inhibition is higher than the untreated sample.

[4] = tested on: Plutella xylostella (Diamond Back Moth); experiment: Example B5: Plutella xylostella (Diamond Back Moth), artificial diet, 24-well; details: 192 h, application rate of 200 ppm, eggs, 8 days after infestation, read-out: control in at least one of the two categories (mortality or growth inhibition)
Experimental: Example B5: Plutella xylostella (Diamond Back Moth)
24-well microtiter plates with artificial diet were treated with aqueous test solutions prepared from 10′000 ppm DMSO stock solutions by pipetting. After drying, Plutella eggs were pipetted through a plastic stencil onto a gel blotting paper and the plate was closed with it. The samples were assessed for mortality and growth inhibition in comparison to untreated samples 8 days after infestation.

[5] = tested on: Myzus persicae (Green Peach Aphid); experiment: Example B8: Myzus persicae (Green Peach Aphid): Intrinsic Activity; details: 120 h, test rate of 12 ppm, sucrose solution, 5 days after infestation
Excerpt: Example B8: Myzus persicae (Green Peach Aphid): Intrinsic Activity
Test compounds prepared from 10′000 ppm DMSO stock solutions were applied by pipette into 24-well microtiter plates and mixed with sucrose solution. The plates were closed with a stretched Parafilm. A plastic stencil with 24 holes was placed onto the plate and infested pea seedlings were placed directly on the Parafilm. The infested plate was closed with a gel blotting paper and another plastic stencil and then turned upside down. The samples were assessed for mortality 5 days after infestation.

[6] = tested on: Spodoptera littoralis (Egyptian Cotton Leaf Worm); experiment: Example B9: Spodoptera littoralis (Egyptian Cotton Leaf Worm), sprayed cotton leaf discs; details: foliar, 72 h, application rate of 200 ppm, L1 larvae, 3 days after infestation, read-out: control in at least one of the three categories (mortality, anti-feedant or growth inhibition)
[7] = tested on: Spodoptera littoralis (Egyptian Cotton Leaf Worm); experiment: Example B10: Spodoptera littoralis (Egyptian Cotton Leaf Worm), uptake by lettuce roots from agar; details: 144 h, test rate of 12.5 ppm, compound absorbed by lettuce roots, eggs, 6 days after infestation, read-out: control in at least one of the three categories (mortality, anti-feeding, or growth inhibition)
Excerpt: Example B10: Spodoptera littoralis (Egyptian Cotton Leaf Worm)
Test compounds were applied by pipette from 10′000 ppm DMSO stock solutions into 24-well plates and mixed with agar. Lettuce seeds were placed onto the agar and the multi well plate was closed by another plate which contained also agar. After 7 days the compound was absorbed by the roots and the lettuce grew into the lid plate. The lettuce leaves were then cut off into the lid plate. Spodoptera eggs were pipetted through a plastic stencil onto a humid gel blotting paper and the lid plate was closed with it. The samples were assessed for mortality, anti-feedant effect and growth inhibition in comparison to untreated samples 6 days after infestation.

[8] = tested on: Myzus persicae (Green Peach Aphid); experiment: Example B12: Myzus persicae (Green Peach Aphid), 96-well sucrose solution; details: 120 h, application rate of 50 ppm, 5 days after infestation
Excerpt: Example B12: Myzus persicae (Green Peach Aphid)
Test compounds prepared from 10′000 ppm DMSO stock solutions were applied by a liquid handling robot into 96-well microtiter plates and mixed with a sucrose solution. Parafilm was stretched over the 96-well microtiter plate and a plastic stencil with 96 holes was placed onto the plate. Aphids were sieved into the wells directly onto the Parafilm. The infested plates were closed with a gel blotting card and a second plastic stencil and then turned upside down. The samples were assessed for mortality 5 days after infestation.

[9] = tested on: Plutella xylostella (Diamondback Moth); experiment: Example B13: Plutella xylostella (Diamondback Moth), artificial diet, 96-well; details: 216 h, application rate of 500 ppm, eggs/L1 larvae, 9 days after infestation
Experimental: Example B13: Plutella xylostella (Diamondback Moth)
96-well microtiter plates containing artificial diet were treated with aqueous test solutions, prepared from 10′000 ppm DMSO stock solutions, by a liquid handling robot. After drying, eggs (˜30 per well) were infested onto a netted lid which was suspended above the diet. The eggs hatch and L1 larvae move down to the diet. The samples were assessed for mortality 9 days after infestation.

[10] = tested on: Frankliniella occidentalis (Western Flower Thrips); experiment: Example B3: Frankliniella occidentalis (Western Flower Thrips): Feeding/Contact Activity; details: 168 h, application rate of 200 ppm, population of mixed ages, 7 days after infestation
Experimental: Example B3: Frankliniella occidentalis (Western Flower Thrips): Feeding/Contact Activity
Sunflower leaf discs were placed on agar in 24-well microtiter plates and sprayed with aqueous test solutions prepared from […] stock solutions. After drying the leaf discs were infested with a Frankliniella population of mixed ages. The samples were assessed for mortality 7 days after infestation.

CC(NC(=O)c1cc(C(F)(F)F)nc(C2(C#N)CC2)c1)c1nccnc1-c1ncc(OCC(F)(F)F)cn1 (stereo not shown) [P34, 2-(1-cyanocyclopropyl)-N-[1-[3-[5-(2,2,2-trifluoroethoxy)pyrimidin-2-yl]pyrazin-2-yl]ethyl]-6-(trifluoromethyl)pyridine-4-carboxamide]
≥ 80%: percent control (mortality or growth inhibition) at 200 ppm [1] | percent control (mortality or growth inhibition) at 200 ppm [2] | percent control (mortality, anti-feedant effect or growth inhibition) at 200 ppm [3] | percent control (mortality or growth inhibition) at 200 ppm [4] | mortality at 12 ppm [5] | percent control (mortality, anti-feedant effect or growth inhibition) at 200 ppm [6] | percent control (mortality, anti-feeding or growth inhibition) at 12.5 ppm [7] | mortality at 50 ppm [8] | mortality at 500 ppm [9]

CC(NC(=O)c1cc(C(F)(F)F)cc(C(C)(C)C#N)c1)c1nccnc1-c1ncc(OCC(F)(F)F)cn1 (stereo not shown) [P47, 3-(1-cyano-1-methyl-ethyl)-N-[1-[3-[5-(2,2,2-trifluoroethoxy)pyrimidin-2-yl]pyrazin-2-yl]ethyl]-5-(trifluoromethyl)benzamide]
≥ 80%: percent control (mortality or growth inhibition) at 200 ppm [1] | percent control (mortality or growth inhibition) at 200 ppm [2] | percent control (mortality, anti-feedant effect or growth inhibition) at 200 ppm [3] | percent control (mortality or growth inhibition) at 200 ppm [4] | mortality at 12 ppm [5] | percent control (mortality, anti-feedant effect or growth inhibition) at 200 ppm [6]

CC(NC(=O)c1cc(C(F)(F)F)cc(C(C)(C)C#N)c1)c1nccnc1-c1ccc(C#N)cn1 (stereo not shown) [P9, 3-(1-cyano-1-methyl-ethyl)-N-[1-[3-(5-cyano-2-pyridyl)pyrazin-2-yl]ethyl]-5-(trifluoromethyl)benzamide]
≥ 80%: percent control (mortality or growth inhibition) at 200 ppm [1] | percent control (mortality, anti-feedant effect or growth inhibition) at 200 ppm [3] | percent control (mortality or growth inhibition) at 200 ppm [4] | mortality at 12 ppm [5] | percent control (mortality, anti-feedant effect or growth inhibition) at 200 ppm [6]

CC(NC(=O)c1cc(C2CC2)cc(C(F)(F)F)c1)c1nccnc1-c1ncc(OCC(F)F)cn1 (stereo not shown) [P37, 3-cyclopropyl-N-[1-[3-[5-(2,2-difluoroethoxy)pyrimidin-2-yl]pyrazin-2-yl]ethyl]-5-(trifluoromethyl)benzamide]
≥ 80%: percent control (mortality or growth inhibition) at 200 ppm [1] | percent control (mortality, anti-feedant effect or growth inhibition) at 200 ppm [3] | percent control (mortality or growth inhibition) at 200 ppm [4] | mortality at 12 ppm [5] | percent control (mortality, anti-feedant effect or growth inhibition) at 200 ppm [6] | mortality at 500 ppm [9]

CC(NC(=O)c1cc(C(F)(F)F)cc(C2(C#N)CC2)c1)c1nccnc1-c1ccc(C#N)cn1 (stereo not shown) [P25, 3-(1-cyanocyclopropyl)-N-[1-[3-(5-cyano-2-pyridyl)pyrazin-2-yl]eth-yl]-5-(trifluoromethyl)benzamide]
≥ 80%: percent control (mortality or growth inhibition) at 200 ppm [1] | percent control (mortality, anti-feedant effect or growth inhibition) at 200 ppm [3] | percent control (mortality or growth inhibition) at 200 ppm [4] | percent control (mortality, anti-feedant effect or growth inhibition) at 200 ppm [6] | mortality at 50 ppm [8] | mortality at 500 ppm [9]

CC(NC(=O)c1cc(C(F)(F)F)cc(C2(C#N)CC2)c1)c1nccnc1-c1ncc(OCC(F)(F)F)cn1 (stereo not shown) [P2, 3-(1-cyanocyclopropyl)-N-[1-[3-[5-(2,2,2-trifluoroethoxy)pyrimidin-2-yl]pyrazin-2-yl]ethyl]-5-(trifluoromethyl)benzamide]
≥ 80%: percent control (mortality or growth inhibition) at 200 ppm [1] | percent control (mortality or growth inhibition) at 200 ppm [2] | percent control (mortality, anti-feedant effect or growth inhibition) at 200 ppm [3] | percent control (mortality or growth inhibition) at 200 ppm [4] | mortality at 12 ppm [5] | percent control (mortality, anti-feedant effect or growth inhibition) at 200 ppm [6]

CC(NC(=O)c1cc(C(F)(F)F)cc(C2(C#N)CC2)c1)c1nccnc1-c1ncc(OC(F)F)cn1 (stereo not shown) [P32, 3-(1-cyanocyclopropyl)-N-[1-[3-[5-(difluoromethoxy)pyrimidin-2-yl]pyrazin-2-yl]ethyl]-5-(trifluoromethyl)benzamide]
≥ 80%: percent control (mortality or growth inhibition) at 200 ppm [1] | percent control (mortality or growth inhibition) at 200 ppm [2] | percent control (mortality, anti-feedant effect or growth inhibition) at 200 ppm [3] | percent control (mortality or growth inhibition) at 200 ppm [4] | mortality at 12 ppm [5] | percent control (mortality, anti-feedant effect or growth inhibition) at 200 ppm [6] | percent control (mortality, anti-feeding or growth inhibition) at 12.5 ppm [7] | mortality at 50 ppm [8] | mortality at 500 ppm [9]

CC(NC(=O)c1cc(OC(F)F)cc(C2(C#N)CC2)c1)c1nccnc1-c1ccc(C#N)cn1 (stereo not shown) [P44, 3-(1-cyanocyclopropyl)-N-[1-[3-(5-cyano-2-pyridyl)pyrazin-2-yl]ethyl]-5-(difluorometh-oxy)benzamide]
≥ 80%: percent control (mortality or growth inhibition) at 200 ppm [1] | mortality at 200 ppm [10] | percent control (mortality, anti-feedant effect or growth inhibition) at 200 ppm [3] | percent control (mortality or growth inhibition) at 200 ppm [4] | mortality at 12 ppm [5] | percent control (mortality, anti-feedant effect or growth inhibition) at 200 ppm [6]

CC(NC(=O)c1cc(C(F)(F)F)nc(C2(C#N)CC2)c1)c1nccnc1-c1ncc(OC(F)F)cn1 (stereo not shown) [P36, 2-(1-cyanocyclopropyl)-N-[1-[3-[5-(difluoromethoxy)pyrimidin-2-yl]pyrazin-2-yl]ethyl]-6-(trifluoromethyl)pyridine-4-carboxamide]
≥ 80%: percent control (mortality or growth inhibition) at 200 ppm [1] | percent control (mortality or growth inhibition) at 200 ppm [2] | percent control (mortality, anti-feedant effect or growth inhibition) at 200 ppm [3] | percent control (mortality or growth inhibition) at 200 ppm [4] | percent control (mortality, anti-feedant effect or growth inhibition) at 200 ppm [6] | percent control (mortality, anti-feeding or growth inhibition) at 12.5 ppm [7] | mortality at 50 ppm [8] | mortality at 500 ppm [9]

CC(NC(=O)c1cc(C(F)(F)F)nc(C2(C#N)CC2)c1)c1nccnc1-c1ncc(OCC(F)F)cn1 (stereo not shown) [P40, 2-(1-cyanocyclopropyl)-N-[1-[3-[5-(2,2-difluoroethoxy)pyrimidin-2-yl]pyrazin-2-yl]ethyl]-6-(trifluoromethyl)pyridine-4-carboxamide]
≥ 80%: percent control (mortality or growth inhibition) at 200 ppm [1] | percent control (mortality or growth inhibition) at 200 ppm [2] | percent control (mortality, anti-feedant effect or growth inhibition) at 200 ppm [3] | percent control (mortality or growth inhibition) at 200 ppm [4] | mortality at 12 ppm [5] | percent control (mortality, anti-feedant effect or growth inhibition) at 200 ppm [6] | percent control (mortality, anti-feeding or growth inhibition) at 12.5 ppm [7] | mortality at 50 ppm [8] | mortality at 500 ppm [9]
